# In publication PMC4914250, “Cancer therapeutic approach based on conformational stabilization of mutant p53 protein by small peptides” (Oncotarget, 2016):
# Test system: mutp53 in BT549 cell extract
# Assay: ELISA of mutp53 conformation, BT549
# Format: biochemical, human
# Conditions: score 0-6 compared to positive control
# From the text: (§1) A total of close to 350 peptides, deduced from the phage sequences, were synthesized and subjected to several alternative complementary methods of semi high-throughput functional screening; we refer to these peptides as pCAPs (p53 conformation activating peptides). First, we used cell-free ELISA assays to evaluate the effect of individual peptides on mutp53 conformation and DNA binding in vitro. For conformation analysis (Figure 2A), microtiter plates were coated with PAb240, PAb1620 or PAb421 as control, then the effect of each peptide on reactivity of mutp53 with these antibodies was examined; WTp53 served as a positive control for PAb1620 reactivity.
# (§2) 96-well plates were coated using 3 different anti p53 monoclonal antibodies, PAb421, PAb240 and PAb1620. Wells were incubated overnight (ON) with 100μl Ab (5μg/ml) in room temp (RT). The liquid was discarded, and the wells were washed 3 times with PBS, 200 μl. Next, blocking with 5% BSA in PBS for 2 hours (RT) was performed, followed by 3 washes in PBS. Samples of mutant and WT p53 proteins (100 μl, 10 μg/ml), together with control peptides or with test peptides 1-326 (5μg /ml), were incubated for 1.5 hours, and then added to the wells for1 hour at RT. 4 washes with PBST were performed. Next, HRP conjugated αp53 antibody (10μg/ml HAF1355 (R&D)) were added to the wells and incubated at RT for 1 hour. Plates were washed 3 times in PBST and TMB substrate solution (50μl each well, Thermo, (Cat. No. ES001-1L-K)) was added and incubated at 37°C for 20 min. The reaction was stopped with 2M Sulfuric acid (50μl). The absorbance was measured at 450 nm with a spectrophotometer. Protein concentration was determined by dividing the absorb an each sample to by the absorbance of PAb421 samples.
row,Substance,Conform BT549
1,"EVTFRHSVV [pCAP-1, randomly selected peptide used as inert comparison]",1
2,"SFILFIRRGRLGRRRRRRRRR [pCAP-60R, pCAP-60 with poly arginine tail]",2
3,myr-RRLIVRILKLPNPPER [pCAP-242],4
4,myr-RRKHNKHRPEPDSDER [pCAP-221],3
5,"IRGRIIRRRRRRRRR [pCAP-54R, pCAP-54 with poly arginine tail]",2
6,myr-RRIRDPRILLLHFD [pCAP-325],3
7,SFILFIRRGRLG [pCAP-60],1
8,LHSKTLVL [pCAP-17],2
9,HANLHHT [pCAP-87],2
10,"myr-RRKILFIRLMHNKH [pCAP-227, myristoylated peptide, similarity to GAS2]",4
11,IRGRIIR [pCAP-54],2
12,"LRCLLLLIGRVGRRRRRRRR [pCAP-24R, pCAP-24 with poly arginine tail]",2
13,IRILMFLIGCGR [pCAP-23],2
14,"IRILMFLIGCGRRRRRRRRR [pCAP-23R, pCAP-23 with poly arginine tail]",1
15,LRCLLLLIGRVG [pCAP-24],2

# Test system: SK3
# Assay: Crystal violet viability assay, SK3
# Format: cell-based, human
# Parameters: key: score 0- no effect-white; score 6- as or more effective than positive control- black
# Conditions: score 0-6 compared to positive control, 48 h
# From the text: We also performed a similar analysis on ES2 ovarian cancer cells, which express endogenous mp53^S241F, compared to ES2 cells in which p53 was stably knocked out using CRISPR/Cas9 (ES2 p53KO Figure S1F), to control for specificity for mutp53 (Figure 2D). In ES2 cells, too, some of the peptides caused a significant reduction in cell numbers, more prominent in the mutp53 expressing cells than in their p53KO counterparts. […] Overall, we performed this analysis on several different mutp53-expressing human cancer cell lines, and the results are summarized in Table S3. Based on this comprehensive picture, we reduced the number of most promising candidate lead peptides to 30. These peptides were then synthesized with an 8 arginine C-terminal tail for enhanced delivery across cell membranes (pCAPs 130-160); for clarity, peptides are referred to by their original number, with an R for poly arginine (see Table S3).
# Cells were cultured in 96 wells plates with 2500-4000 cells/well. Serial dilutions of different peptides were added and the plates incubated for additional 48 h at 37°C. Then medium was removed and cell viability was determined by staining the cells with crystal violet (0.05%) in methanol/PBS (1:5, v/v), for 10 min, followed by 3 washes with PBS. 10% acetic acid was added to each well for 10 min. OD was determined at 595 nm.
row,Substance,Viability SK3
1,"EVTFRHSVV [pCAP-1, randomly selected peptide used as inert comparison]",3
2,"myr-PRVLPSPHTIHPSQYP [pCAP-229, myristoylated peptide, similarity to HIPK2]",3
3,"SFILFIRRGRLGRRRRRRRRR [pCAP-60R, pCAP-60 with poly arginine tail]",5
4,"WNHHHSTPHPAHRRRRRR [pCAP-97R, pCAP-97 with poly arginine tail]",3
5,myr-RRLIVRILKLPNPPER [pCAP-242],5
6,HHPWTHHQRWS [pCAP-20],3
7,myr-RRKHNKHRPEPDSDER [pCAP-221],5
8,"IRGRIIRRRRRRRRR [pCAP-54R, pCAP-54 with poly arginine tail]",4
9,myr-RRIRDPRILLLHFD [pCAP-325],3
10,SFILFIRRGRLG [pCAP-60],3
11,LHSKTLVL [pCAP-17],3
12,"myr-RRKILFIRLMHNKH [pCAP-227, myristoylated peptide, similarity to GAS2]",6
13,IRGRIIR [pCAP-54],4
14,"LRCLLLLIGRVGRRRRRRRR [pCAP-24R, pCAP-24 with poly arginine tail]",2
15,IRILMFLIGCGR [pCAP-23],3
16,"IRILMFLIGCGRRRRRRRRR [pCAP-23R, pCAP-23 with poly arginine tail]",3

# Test system: mutp53 in SK3 cell extract
# Assay: ELISA of mutp53 conformation, SK3
# Format: biochemical, human
# Conditions: score 0-6 compared to positive control
# From the text: as §1, §2
row,Substance,Conform SK3
1,"myr-PRVLPSPHTIHPSQYP [pCAP-229, myristoylated peptide, similarity to HIPK2]",2
2,"SFILFIRRGRLGRRRRRRRRR [pCAP-60R, pCAP-60 with poly arginine tail]",3
3,"WNHHHSTPHPAHRRRRRR [pCAP-97R, pCAP-97 with poly arginine tail]",3
4,HHPWTHHQRWS [pCAP-20],4
5,myr-RRKHNKHRPEPDSDER [pCAP-221],3
6,myr-RRIRDPRILLLHFD [pCAP-325],3
7,SFILFIRRGRLG [pCAP-60],2
8,"myr-RRKILFIRLMHNKH [pCAP-227, myristoylated peptide, similarity to GAS2]",1
9,"LRCLLLLIGRVGRRRRRRRR [pCAP-24R, pCAP-24 with poly arginine tail]",2
10,HSSHHHPVHSWN [pCAP-83],2
11,YRRLLIGMMWRRRRRRRRR [pCAP-68],5
12,LRCLLLLIGRVG [pCAP-24],2
13,YPTQGHLR [pCAP-36],3
14,WNHHHSTPHPAH [pCAP-97],3

# Test system: mutp53
# Assay: Summary score of peptide functional screens
# Conditions: overall score over conformation, DNA binding, viability and PCR screens
row,Substance,SCORE
1,"EVTFRHSVV [pCAP-1, randomly selected peptide used as inert comparison]",19
2,"myr-PRVLPSPHTIHPSQYP [pCAP-229, myristoylated peptide, similarity to HIPK2]",35
3,"SFILFIRRGRLGRRRRRRRRR [pCAP-60R, pCAP-60 with poly arginine tail]",32
4,"WNHHHSTPHPAHRRRRRR [pCAP-97R, pCAP-97 with poly arginine tail]",46
5,myr-RRLIVRILKLPNPPER [pCAP-242],55
6,HHPWTHHQRWS [pCAP-20],19
7,myr-RRKHNKHRPEPDSDER [pCAP-221],58
8,"IRGRIIRRRRRRRRR [pCAP-54R, pCAP-54 with poly arginine tail]",28
9,myr-RRIRDPRILLLHFD [pCAP-325],53
10,SFILFIRRGRLG [pCAP-60],26
11,LHSKTLVL [pCAP-17],20
12,HANLHHT [pCAP-87],32
13,"myr-RRKILFIRLMHNKH [pCAP-227, myristoylated peptide, similarity to GAS2]",56
14,IRGRIIR [pCAP-54],23
15,"LRCLLLLIGRVGRRRRRRRR [pCAP-24R, pCAP-24 with poly arginine tail]",34
16,HSSHHHPVHSWN [pCAP-83],27
17,IRILMFLIGCGR [pCAP-23],21
18,YRRLLIGMMWRRRRRRRRR [pCAP-68],37
19,"IRILMFLIGCGRRRRRRRRR [pCAP-23R, pCAP-23 with poly arginine tail]",24
20,LRCLLLLIGRVG [pCAP-24],23
21,YPTQGHLR [pCAP-36],32
22,WNHHHSTPHPAH [pCAP-97],39
